Experiments:
Assay type in all cases: functional, cell-based
MCF7 = test: Antiproliferative activity against human MCF7 cells assessed as reduction in cell viability incubated for 48 hrs by MTS assay; conditions: MCF7, 48 h
A549 = test: Antiproliferative activity against human A549 cells assessed as reduction in cell viability incubated for 48 hrs by MTS assay; conditions: A549, 48 h
HL-60 = test: Antiproliferative activity against human HL60 cells assessed as reduction in cell viability incubated for 48 hrs by MTS assay; conditions: HL-60, 48 h
SW480 = test: Antiproliferative activity against human SW480 cells assessed as reduction in cell viability incubated for 48 hrs by MTS assay; conditions: SW480, 48 h
SMMC-7721 = test: Antiproliferative activity against human SMMC7721 cells assessed as reduction in cell viability incubated for 48 hrs by MTS assay; conditions: SMMC-7721, 48 h

| Structure (SMILES) | IC50 (MCF7) | IC50 (A549) | IC50 (HL-60) | IC50 (SW480) | IC50 (SMMC-7721) |
| --- | --- | --- | --- | --- | --- |
| C[C@@H]1CC[C@@]2(OC1)O[C@H]1C[C@H]3[C@@H]4CC=C5C[C@H](n6cc[n+](CC(=O)c7ccccc7)c6)CC[C@]5(C)[C@H]4CC[C@]3(C)[C@H]1[C@@H]2C | 5.18 µM | 7.3 µM | 1.09 µM | 8.18 µM | 7.15 µM |
| COc1ccc(C(=O)C[n+]2ccn([C@H]3C[C@H]4[C@@H]5C[C@@H]6O[C@]7(CC[C@@H](C)CO7)[C@@H](C)[C@@H]6[C@@]5(C)CC[C@@H]4[C@@]4(C)CC[C@@H]5C[C@]534)c2)cc1 | 4.49 µM | 7.18 µM | 1.25 µM | 7.03 µM | 7.32 µM |
| CC(C)CCC[C@@H](C)[C@H]1CC[C@H]2[C@@H]3CC=C4C[C@@H](n5cc[n+](CC(=O)c6ccccc6)c5)CC[C@]4(C)[C@H]3CC[C@]12C | 8.84 µM | 8.1 µM | 7.73 µM | 6.56 µM | 1.42 µM |
| CC(C)CCC[C@@H](C)[C@H]1CC[C@H]2[C@@H]3CC=C4C[C@H](n5cc[n+](CC(=O)c6cccc(Br)c6)c5)CC[C@]4(C)[C@H]3CC[C@]12C | 8.51 µM | 7.22 µM | 9.91 µM | 6.33 µM | 1.7 µM |
| CC(C)CCC[C@@H](C)[C@H]1CC[C@H]2[C@@H]3CC=C4C[C@H](n5cnc6ccccc65)CC[C@]4(C)[C@H]3CC[C@]12C | > 20 µM | > 20 µM | > 20 µM | > 20 µM | > 20 µM |
| COc1ccc(C(=O)C[n+]2cn([C@@H]3CC[C@@]4(C)C(=CC[C@H]5[C@@H]6C[C@@H]7O[C@]8(CC[C@@H](C)CO8)[C@@H](C)[C@@H]7[C@@]6(C)CC[C@@H]54)C3)c3ccccc32)cc1 | 2.11 µM | 2.45 µM | 1.22 µM | 2.55 µM | 1.45 µM |
| COc1ccc(C(=O)C[n+]2ccn([C@H]3CC[C@H]4[C@@H]5CC=C6C[C@@H](O)CC[C@]6(C)[C@H]5CC[C@]34C)c2)cc1 | > 20 µM | > 20 µM | > 20 µM | > 20 µM | > 20 µM |
| CC(C)CCC[C@@H](C)[C@H]1CC[C@H]2[C@@H]3CC=C4C[C@H](n5cc[n+](CC(=O)c6ccc7ccccc7c6)c5)CC[C@]4(C)[C@H]3CC[C@]12C | > 20 µM | 8.82 µM | 10.6 µM | 10.5 µM | 1.88 µM |

Other lines, results leading:

| IC50 (MCF7) | IC50 (A549) | IC50 (HL-60) | IC50 (SW480) | IC50 (SMMC-7721) | Structure (SMILES) |
| --- | --- | --- | --- | --- | --- |
| 5.25 µM | 13.2 µM | 6 µM | 4.87 µM | 2.9 µM | COc1ccc(C(=O)C[n+]2ccn([C@@H]3CC[C@@]4(C)C(=CC[C@H]5[C@@H]6CC[C@H]([C@H](C)CCCC(C)C)[C@@]6(C)CC[C@@H]54)C3)c2)cc1 |
| > 20 µM | > 20 µM | > 20 µM | > 20 µM | > 20 µM | C[C@@H]1CC[C@@]2(OC1)O[C@H]1C[C@H]3[C@@H]4CC=C5C[C@H](n6ccnc6)CC[C@]5(C)[C@H]4CC[C@]3(C)[C@H]1[C@@H]2C |
| 2.31 µM | 1.25 µM | 1.02 µM | 1.8 µM | 0.88 µM | C[C@@H]1CC[C@@]2(OC1)O[C@H]1C[C@H]3[C@@H]4CC=C5C[C@H](n6c[n+](Cc7ccc8ccccc8c7)c7ccccc76)CC[C@]5(C)[C@H]4CC[C@]3(C)[C@H]1[C@@H]2C |
| 4.88 µM | 7.2 µM | 4.35 µM | 7.26 µM | 5.47 µM | CC(=O)O[C@H]1CC[C@@]2(C)C(=CC[C@H]3[C@@H]4CC[C@H](n5cc[n+](CC(=O)c6cccc(Br)c6)c5)[C@@]4(C)CC[C@@H]32)C1 |

Source: ChEMBL document CHEMBL4340516, “Synthesis and antitumor activity of novel steroidal imidazolium salt derivatives” (Eur J Med Chem, 2019)
